Data taken from ChEMBL document CHEMBL5244232, “Progress in 11β-HSD1 inhibitors for the treatment of metabolic diseases: A comprehensive guide to their chemical structure diversity in drug development” (Eur J Med Chem, 2020).
Where “and” joins values, the source holds several entries; their conditions need not be identical. Equal values may be shown once. Each block holds one compound with its values, some of them ahead of it.

Experiments:
[1] = molecular target: T1, 11-beta-hydroxysteroid dehydrogenase 1 (Homo sapiens, UniProt P28845); test: Inhibition of human 11beta-HSD1
T1 sequence (P28845 whole entry): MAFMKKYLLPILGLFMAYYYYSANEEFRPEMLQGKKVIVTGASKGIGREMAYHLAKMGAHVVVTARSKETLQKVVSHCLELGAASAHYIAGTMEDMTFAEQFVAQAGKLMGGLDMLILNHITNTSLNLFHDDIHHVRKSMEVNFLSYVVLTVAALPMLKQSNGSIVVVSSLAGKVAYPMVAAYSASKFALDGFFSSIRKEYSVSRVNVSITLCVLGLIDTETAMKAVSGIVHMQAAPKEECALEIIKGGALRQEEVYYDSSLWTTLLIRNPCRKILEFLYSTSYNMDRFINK

[2] = molecular target: T2, 11-beta-hydroxysteroid dehydrogenase 1 (Rattus norvegicus, UniProt P16232); test: Inhibition of rat 11beta-HSD1
T2 sequence (P16232 whole entry): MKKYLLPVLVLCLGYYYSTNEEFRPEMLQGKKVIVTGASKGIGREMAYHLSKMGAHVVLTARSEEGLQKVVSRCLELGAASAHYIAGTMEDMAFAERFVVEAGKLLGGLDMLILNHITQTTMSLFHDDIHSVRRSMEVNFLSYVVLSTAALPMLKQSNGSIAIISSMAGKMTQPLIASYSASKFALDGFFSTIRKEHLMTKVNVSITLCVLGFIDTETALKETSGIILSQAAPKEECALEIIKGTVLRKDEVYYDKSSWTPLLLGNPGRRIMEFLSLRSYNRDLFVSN

[3] = molecular target: T3, 11-beta-hydroxysteroid dehydrogenase 1 (Mus musculus, UniProt P50172); test: Inhibition of mouse 11beta-HSD1
T3 sequence (P50172 whole entry): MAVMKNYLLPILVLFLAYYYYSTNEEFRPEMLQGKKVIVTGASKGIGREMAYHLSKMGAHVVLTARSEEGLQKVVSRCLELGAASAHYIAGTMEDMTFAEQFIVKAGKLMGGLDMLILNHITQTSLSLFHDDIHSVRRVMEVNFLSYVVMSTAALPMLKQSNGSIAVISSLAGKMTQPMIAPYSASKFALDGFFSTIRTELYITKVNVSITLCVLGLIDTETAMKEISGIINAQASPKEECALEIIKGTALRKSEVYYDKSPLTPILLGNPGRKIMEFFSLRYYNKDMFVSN

[4] = molecular target: T1, 11-beta-hydroxysteroid dehydrogenase 1; test: Inhibition of human 11beta-HSD1 using steroid as substrate incubated for 20 to 30 mins by microplate fluorimeter analysis
[5] = molecular target: T1, 11-beta-hydroxysteroid dehydrogenase 1; test: Inhibition of human 11beta-HSD1 incubated for 30 mins by HPLC-MS/MS analysis
[6] = molecular target: T3, 11-beta-hydroxysteroid dehydrogenase 1; test: Inhibition of mouse 11beta-HSD1 expressed in 3T3-L1 cells incubated for 24 hrs by HTRF assay; assay type: cell-based
[7] = molecular target: T3, 11-beta-hydroxysteroid dehydrogenase 1; test: Inhibition of mouse 11beta-HSD1 expressed in CHO-K1 cells incubated for 3 hrs by HTRF assay; assay type: cell-based
[8] = molecular target: T3, 11-beta-hydroxysteroid dehydrogenase 1; test: Inhibition of mouse 11beta-HSD1 incubated for 24 hrs by HTRF assay
[9] = molecular target: T2, 11-beta-hydroxysteroid dehydrogenase 1; test: Inhibition of rat 11beta-HSD1 in kidney microsomes incubated for 20 mins by HPLC analysis; set-up: species or system Microsome
[10] = molecular target: 11-beta-hydroxysteroid dehydrogenase 1 (Rattus norvegicus) (UniProt P16232); test: Inhibition of rat 11beta-HSD1 in adipose tissue microsome
[11] = molecular target: T3, 11-beta-hydroxysteroid dehydrogenase 1; test: Inhibition of mouse 11beta-HSD1 expressed in CHO-K1 cells incubated for 24 hrs by HTRF assay; assay type: cell-based
[12] = molecular target: T4, 11-beta-hydroxysteroid dehydrogenase type 2 (Homo sapiens, UniProt P80365); test: Inhibition of human 11beta-HSD2 incubated for 2 hrs by HPLC analysis
T4 sequence (P80365 whole entry): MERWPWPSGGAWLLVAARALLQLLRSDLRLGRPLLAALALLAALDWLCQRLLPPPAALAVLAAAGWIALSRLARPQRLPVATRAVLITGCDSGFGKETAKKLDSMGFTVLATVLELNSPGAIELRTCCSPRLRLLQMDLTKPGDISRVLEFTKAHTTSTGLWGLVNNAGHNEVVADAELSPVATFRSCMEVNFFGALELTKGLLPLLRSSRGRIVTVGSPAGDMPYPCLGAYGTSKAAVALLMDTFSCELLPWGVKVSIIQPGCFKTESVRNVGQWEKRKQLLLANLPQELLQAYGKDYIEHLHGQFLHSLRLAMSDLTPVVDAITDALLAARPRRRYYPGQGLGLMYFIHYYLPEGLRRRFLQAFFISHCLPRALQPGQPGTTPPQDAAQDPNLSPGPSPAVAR

[13] = molecular target: T2, 11-beta-hydroxysteroid dehydrogenase 1; test: Inhibition of rat 11beta-HSD1 expressed in Leydig cells; assay type: cell-based
[14] = Inhibition of rat 11beta-HSD2 expressed in Leydig cells; assay type: cell-based
[15] = molecular target: T3, 11-beta-hydroxysteroid dehydrogenase 1; test: Inhibition of mouse 11beta-HSD1 in liver microsome incubated for 24 hrs by LC-MS analysis; assay type: microsomes
[16] = molecular target: Hydroxysteroid 11-beta dehydrogenase 1 (Macaca mulatta, UniProt Q56D22); test: Inhibition of monkey 11beta-HSD1 in liver microsome incubated for 24 hrs by LC-MS analysis; assay type: microsomes
Hydroxysteroid 11-beta dehydrogenase 1, sequence (Q56D22 whole entry): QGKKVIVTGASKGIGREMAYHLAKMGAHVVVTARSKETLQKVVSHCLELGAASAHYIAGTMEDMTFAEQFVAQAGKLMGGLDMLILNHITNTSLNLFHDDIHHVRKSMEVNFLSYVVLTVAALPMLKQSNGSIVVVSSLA

[17] = molecular target: T1, 11-beta-hydroxysteroid dehydrogenase 1; test: Inhibition of human 11beta-HSD1 in liver microsome incubated for 24 hrs by LC-MS analysis; assay type: microsomes

- IC50 [1]: 61 nM
Structure (SMILES): O=S(=O)(c1ccccc1)N1CCN(c2ncccc2C(F)(F)F)CC1

- IC50 [2]: 8 nM
- IC50 [3]: 1 nM and 8 nM
- IC50 [1]: 11 nM
Structure (SMILES): C[C@@H]1CN(c2ccc(F)cc2C(F)(F)F)CCN1S(=O)(=O)c1cccc([C@@](C)(O)C(F)(F)F)c1 [HSD-016]

- IC50 [4]: 63 nM
Structure (SMILES): O=S(=O)(Nc1nc(-c2sccc2Cl)cs1)c1cc(F)c(Br)cc1F

- IC50 [4]: 55 nM
Structure (SMILES): Cc1nc(NS(=O)(=O)c2ccc(Cl)cc2Cl)sc1CC(Cl)(Cl)Cl

- IC50 [3]: 4.3 nM
Structure (SMILES): C[C@@H](c1ccc(-c2ccn(C)c(=O)c2)cc1)N1CC[C@](CC(C)(C)O)(c2ccccc2)OC1=O

- IC50 [5]: 9070 nM
Structure (SMILES): CC1=C2[C@H](C)[C@@H](C)O[C@]23O[C@H](C)[C@@H](C)O[C@@]3(O)CC1=O

- IC50 [6]: 3 nM
- IC50 [7]: 5.2 nM
Structure (SMILES): NC(=O)C12CC3CC(CC(NC(=O)C4SCCN4S(=O)(=O)c4ccccc4F)(C3)C1)C2 (configuration not stated)

- IC50 [7]: 2130 nM
Structure (SMILES): O=C(NC12CC3CC(CC(C3)C1)C2)C1NCCS1 (configuration not stated)

- IC50 [8]: 210 nM
Structure (SMILES): O=C(CN1C(C(=O)c2ccccc2)=C(O)c2ccccc2S1(=O)=O)c1ccccc1

- IC50 [9]: 35200 nM
- IC50 [10]: 1000 nM
Structure (SMILES): Oc1ccc(/C=C/c2cc(O)cc(O)c2)cc1 [RESVERATROL]

- IC50 [11]: 0.4 nM
Structure (SMILES): NC(=O)C12CC3CC(CC(NC(=O)CN4CCCN(c5c(Cl)cc(Cl)cc5Cl)S4(=O)=O)(C3)C1)C2

Structure (SMILES): O=C(O[C@@H]1Cc2c(O)cc(O)cc2O[C@@H]1c1cc(O)c(O)c(O)c1)c1cc(O)c(O)c(O)c1 [EPIGALOCATECHIN GALLATE]
- IC50 [12]: 20900 nM

- IC50 [13]: 100 nM
- IC50 [14]: > 100000 nM
Structure (SMILES): O=C1/C(=C\c2ccccc2C(F)(F)F)CCC/C1=C\c1ccccc1C(F)(F)F

- IC50 [15]: 2.8 nM
- IC50 [16]: 2.43 nM
- IC50 [17]: 0.02 nM
Structure (SMILES): CN(CC1(C(=O)NC23CC4CC(C2)CC(C(N)=O)(C4)C3)CC1)S(=O)(=O)c1ccccc1F

- IC50 [4]: 335 nM
Structure (SMILES): O=C(Cc1csc(NS(=O)(=O)c2c(Cl)cc(Cl)cc2Cl)n1)N1CCOCC1
